Results taken from US20250120958A1, “Treatment of GM2 Gangliosidosis” (Azafaros B.V., priority 2022, published 2025).
Read-outs that look alike come from different tables or passages of the source.

What was measured:
[1] = target: T1, GCS (Homo sapiens, UniProt Q16739); assay: In vitro potency on GCS (glucosylceramide synthase); assay type: biochemical
T1 sequence (Q16739 1-394): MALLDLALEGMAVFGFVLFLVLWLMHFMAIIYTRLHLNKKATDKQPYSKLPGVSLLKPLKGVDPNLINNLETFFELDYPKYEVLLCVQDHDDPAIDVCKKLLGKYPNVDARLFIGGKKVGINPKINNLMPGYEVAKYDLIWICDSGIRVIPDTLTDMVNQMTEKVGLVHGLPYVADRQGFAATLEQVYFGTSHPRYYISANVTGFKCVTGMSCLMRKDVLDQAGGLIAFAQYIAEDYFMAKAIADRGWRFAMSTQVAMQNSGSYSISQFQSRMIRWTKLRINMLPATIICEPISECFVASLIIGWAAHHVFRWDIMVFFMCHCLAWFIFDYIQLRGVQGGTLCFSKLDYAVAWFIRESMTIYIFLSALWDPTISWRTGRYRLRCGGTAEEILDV

[2] = target: T2, GbA2 (Homo sapiens, UniProt Q9HCG7); assay: In vitro potency on GbA2 (non-lysosomal glucosylceramidase); assay type: biochemical
T2 sequence (Q9HCG7 1-927): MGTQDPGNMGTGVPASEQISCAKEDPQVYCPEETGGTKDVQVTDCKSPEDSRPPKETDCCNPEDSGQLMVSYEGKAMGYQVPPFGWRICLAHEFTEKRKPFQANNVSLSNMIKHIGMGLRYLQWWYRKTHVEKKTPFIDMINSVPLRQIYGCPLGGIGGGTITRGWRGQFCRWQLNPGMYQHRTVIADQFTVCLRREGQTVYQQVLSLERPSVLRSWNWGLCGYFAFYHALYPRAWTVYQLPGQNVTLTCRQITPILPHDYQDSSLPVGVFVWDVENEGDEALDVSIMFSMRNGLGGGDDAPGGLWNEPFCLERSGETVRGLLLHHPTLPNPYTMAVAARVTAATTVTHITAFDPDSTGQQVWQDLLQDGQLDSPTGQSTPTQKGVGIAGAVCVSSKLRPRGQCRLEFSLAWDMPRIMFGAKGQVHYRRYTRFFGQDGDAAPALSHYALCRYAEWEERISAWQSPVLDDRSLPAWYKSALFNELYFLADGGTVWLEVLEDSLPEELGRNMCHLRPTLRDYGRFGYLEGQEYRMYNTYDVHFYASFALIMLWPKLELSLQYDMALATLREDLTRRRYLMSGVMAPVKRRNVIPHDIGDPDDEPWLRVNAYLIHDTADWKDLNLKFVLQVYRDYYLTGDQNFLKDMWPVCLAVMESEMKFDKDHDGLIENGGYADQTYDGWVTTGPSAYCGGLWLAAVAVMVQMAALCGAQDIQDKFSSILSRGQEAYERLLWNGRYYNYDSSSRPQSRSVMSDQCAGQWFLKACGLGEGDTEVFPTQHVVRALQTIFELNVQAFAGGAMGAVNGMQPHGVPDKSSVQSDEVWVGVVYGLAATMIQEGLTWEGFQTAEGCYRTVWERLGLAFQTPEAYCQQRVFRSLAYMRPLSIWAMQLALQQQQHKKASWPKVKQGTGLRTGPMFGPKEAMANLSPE

[3] = tested on: Sandhoff mouse model (Hexb (−/−)); assay: Survival study in Sandhoff mouse model; assay type: in vivo; conditions: Hexb (−/−) mice
Description: (strain: B6; 129S4-Hexbtm1Rlp/J). The mouse line was maintained by crossing homozygous −/− males with heterozygous females (generating litters with 50%−/− and 50%+/−) under specific pathogen-free conditions. All mice were housed in individual, ventilated cages (IVCs) with 12-h light/dark cycles with food and water ad libitum. Young-adult mice of the same genetic C57BL/6 background were from Jackson Laboratories. Breeding of Hexb mutants will target needs of the “Long-term” cohorts first, followed by the “16-week” biomarker study.
Cohort 1: There were a total of 6 dose groups and 2 vehicle groups using both Hexb+/− and Hexb−/− animals. […] Dosing occurred daily from day 30 to day 170, unless the animal was prematurely euthanized per protocol.
A subsequent study to explore lower doses was also performed (in the same manner as in Example 2) in which doses of 0.02, 0.06, 0.2 and 0.5 mg/kg/day were used. […] It is unclear why the 0.06 mg/kg/day had less survival as formulations were checked and confirmed accurate dosing (internal data).

[4] = Plasma pharmacokinetics after 16 weeks of once daily administration (LC-MS/MS); assay type: in vivo, mouse
Description: At the end of the defined treatment period, mice were humanely euthanized by transcardial perfusion with Ringer solution after C02 asphyxiation. […]. Before perfusion, blood samples were collected via cardiac puncture into K2EDTA tubes and stored on wet ice. Whole blood was processed to plasma by centrifugation (3000 g for 10 minutes at 5° C.) within 30 min of collection and stored at −75° C.
Unless otherwise stated, the methodology and sample collection were performed as in Example 2.

[5] = tested on: GlcCer C16:0 and C18:0; assay: Target engagement: GlcCer C16:0 and C18:0 in the cerebellum; assay type: in vivo, mouse; conditions: treated vs untreated heterozygous or Hexb (−/−) mice
Description: Consistent with this action, the inhibition of GbA2 should result in an increase in GlcCer species in the brain where GbA2 plays a significant role.

**Q.** Which results are given for OC[C@H]1[C@@H](O)[C@H](O)[C@@H](O)CN1CCCCCOCc1ccc(-c2ccccc2)c(F)c1 [AZ-3102]?
**A.** inhibitory activity on GCS [1]: low nM; IC50 ([1]; in vitro potency): 2.54 nM; inhibitory activity on GbA2 [2]: low nM; IC50 ([2]; in vitro potency): 0.692 nM; median survival ([3]; 0.02 mg/kg/day): 120 days; median survival ([3]; 0.06 mg/kg/day): 116 days; median survival ([3]; 0.2 mg/kg/day): 133 days; median survival ([3]; 0.5 mg/kg/day): 138 days; increase of average median survival ([3]; 0.5-6 mg/kg/day oral gavage daily, vs vehicle (115 days)): 26 days; minimal effective dose on survival ([3]; once daily gavage): 0.2 mg/kg/day; increase in survival / life expectancy ([3]; treated vs vehicle/untreated): 22%; Cmax difference between lowest and highest dose ([4]; 6 vs 0.5 mg/kg/day): approximately 7 fold; Cmax ([4]; Hexb (−/−) (Sandhoff mice), mouse, oral, plasma, 0.5 to 6 mg/kg/day, steady state, read-out: Cmax, range over doses): 100 to 674 ng/mL; AUC(0-t) ([4]; Hexb (−/−) (Sandhoff mice), mouse, oral, plasma, 0.5 to 6 mg/kg/day, steady state, read-out: mean AUC0-24, range over doses): 417 to 3610 ng·h/mL; AUC(0-t) ([4]; Hexb (−/−) (Sandhoff model), mouse, plasma, po, Sand A, Hexb (−/−), 6 mg/kg/day, 16 weeks once daily, read-out: AUC0-24): 3610 ng·h/mL; Cmax ([4]; Hexb (−/−) (Sandhoff model), mouse, plasma, po, Sand A, Hexb (−/−), 6 mg/kg/day, 16 weeks once daily, read-out: Cmax): 674 ng/mL; AUC(0-t) ([4]; Hexb (−/−) (Sandhoff model), mouse, plasma, po, Sand B, Hexb (−/−), 3 mg/kg/day, 16 weeks once daily, read-out: AUC0-24): 1980 ng·h/mL; Cmax ([4]; Hexb (−/−) (Sandhoff model), mouse, plasma, po, Sand B, Hexb (−/−), 3 mg/kg/day, 16 weeks once daily, read-out: Cmax): 446 ng/mL; AUC(0-t) ([4]; Hexb (−/−) (Sandhoff model), mouse, plasma, po, Sand D, Hexb (−/−), 1.5 mg/kg/day, 16 weeks once daily, read-out: AUC0-24): 987 ng·h/mL; Cmax ([4]; Hexb (−/−) (Sandhoff model), mouse, plasma, po, Sand D, Hexb (−/−), 1.5 mg/kg/day, 16 weeks once daily, read-out: Cmax): 159 ng/mL; AUC(0-t) ([4]; Hexb (−/−) (Sandhoff model), mouse, plasma, po, Sand E, Hexb (−/−), 0.5 mg/kg/day, 16 weeks once daily, read-out: AUC0-24): 417 ng·h/mL; Cmax ([4]; Hexb (−/−) (Sandhoff model), mouse, plasma, po, Sand E, Hexb (−/−), 0.5 mg/kg/day, 16 weeks once daily, read-out: Cmax): 100 ng/mL; concentration at 24 h ([4]; Hexb (−/−) and Hexb (+/−), mouse, plasma, oral, all doses): ~1 ng/mL; Cmax/D ([4]; Sand E, Hexb (−/−), 0.5 mg/kg/day): 200 (ng/mL)/(mg/kg); AUC(0-t) ([4]; mouse, plasma, po, Het B, Hexb (+/−), 3 mg/kg/day, 16 weeks once daily, read-out: AUC0-24): 1960 ng·h/mL; Cmax ([4]; mouse, plasma, po, Het B, Hexb (+/−), 3 mg/kg/day, 16 weeks once daily, read-out: Cmax): 370 ng/mL; increase in GlcCer C16:0 [5]: approximately 10 fold; increase in GlcCer C18:0 [5]: approximately 10 fold
